The text below walks through data of US10544167B2, “Compounds as stimuli-responsive probes, methods and applications thereof” (JAWAHARLAL NEHRU CENTRE FOR ADVANCED SCIENTIFIC RESEARCH, priority 2015, dated 2020).

Data set [1] can be described thus: Detection limit of H2O2 in presence of QCy-BA (concentration-dependent fluorescence, microplate reader). The following applies: QCy-BA 5 μM, PBS buffer, excitation 400 nm, 3σ/slope. How it is done: Concentration dependent studies are performed using microplate reader. In the well-plates, first QCy-BA (5 μM) in buffer solution is taken, then increasing concentration of H2O2 from 0 to 100 μM is added. Upon excitation at 400 nm, the emission at […] as function time after addition of H2O2 is collected. The fluorescence intensity at […] is plotted as a function of concentration of hydrogen peroxide and each experiment is done in triplicates.
Further, concentration-dependent fluorescence study on slicing of the phenyl boronic acid functionality of QCy-BA (5 μM) in response to sequential addition of H2O2 (5 to 100 μM) is performed. The fluorescence intensity of QCy-BA at 565 nm is decreased in response to added H2O2 in the concentration range of 5 to 50 μM and subsequently reached saturation at 100 μM. A linear relationship (R^2=0.9877) is observed with increasing concentration of H2O2 in the concentration range of 5-50 JAM. Based on 3a/slope the limit of detection (LOD) of H2O2, using the decrease in fluorescence of QCy-BA at 565 nm, is found to be 5.3 μM (FIG. 7). H2O2 is one of the many ROS present in the biological system and it is necessary to test the probe QCy-BA against all of them to assess the selectivity and specificity. […]

Data set [2] concerns HeLa cells. The experiment in a line: Cytotoxicity on HeLa cells (MTT assay). Format: cell-based, Human. How it is done:
MTT [(3-(4,5-dimethylthiozol-2yl)-2,5-diphenyltetrazolium bromide] assay is carried out with probe QCy-BA on HeLa cells to determine the cytotoxicity effect. In a tissue cultured 96-well plate, 10,000 cells per well are plated and incubated for 24 h, for cells to attach. After completion of 24 h incubation, the attached and healthy cells are treated with various concentrations (25 μM, 12.5 μM, 6.25 μM, 3.125 μM and 0 μM) of probe QCy-BA and further incubated for 24 h. All the treatments are carried out in triplicates. The required concentrations of QCy-BA are made from stock solution in 0.2% DMEM. Stock solution of probe QCy-BA (1 mg/mL) is made in water. Four hours before stipulated time of experiment, MTT-solution (5 mg/mL of 20 μL) is added in each well and incubated to form formazan crystals. The culture medium is completely removed by 1 mL pipette and 200 μL of DMSO is added to dissolve formazan crystals. The purple colored formazan is estimated by determining absorbance at 590 nm with the help of spectrophotometer (Bio-RAD model 1680, Microplate reader). The results are shown in bar graphs (concentration of QCy-BA vs % cell viability).
In order to check the cytotoxicity of probe QCy-BA cell viability assay is performed in HeLa cells. Upon incubation with QCy-BA, more than 80% of the cells are viable even at 25 μM concentration after about 24 hours (FIG. 15).

In data set [3] the test system is H2O2 in MRC5 cells. The experiment in a line: H2O2 detection after genotoxic stress (BrdU/doxorubicin) in primary MRC5 cells, fluorescence plate reader. Format: cell-based, human. As to conditions: MRC5, various doses of BrdU and doxorubicin 0.1 μM, 72 h; probe 5 μM. The protocol:
(§1) The cells are incubated with QCy-BA (5 μM) for 30 minutes in dark, washed with PBS and analysed to detect QCy-BA dye fluorescence using Infinite M1000 Pro, Tecan, Austria). Wavelengths used for excitation and emission for QCy-BA dye is 400 nm/650 nm. In all ROS measurement assays are done using plate reader and after fluorescence measurements, cells are washed, trypsinized and counted to estimate fluorescence per cell recordings.
Further, similar experiments are performed in primary MRC5 cells, which are human lung primary fibroblasts. To induce DNA damage, MRC5 cells are similarly treated with various doses of BrdU and doxorubicin (0.1 μM) for 72 h. […] Therefore, above results reveal that QCy-BA is a versatile probe to monitor the elevated levels of H2O2 in both primary and cancer cells in senescence state.

Data set [4] in a line: Time-dependent fluorescence study of release kinetics of QCy-BA to QCy-DT in response to H2O2 in presence of Drew-AT. As to conditions: QCy-BA 2 μM, Drew-AT 2 μM. How it is done: The time-dependent fluorescence study is carried out to evaluate the release kinetics of QCy-BA (2 μM) to QCy-DT in response to H2O2 (100 μM) stimulus, in presence of Drew-AT duplex. The change in fluorescence intensities at […] and 650 nm corresponding to emission maxima (Emax) of QCy-BA and QCy-DT in presence of Drew-AT is monitored.
The calculation of kinetics parameter using pseudo-first-order conditions for conversion of QCy-BA (2 μM) to QCy-DT in the presence of H2O2 (1 mM) and Drew-AT (2 μM) gave the rate constant of kobs=1.0×10^−3 s^−1 (FIG. 10).

Data set [5] relates to H2O2 in HeLa cells. The experiment in a line: H2O2 detection after genotoxic stress (BrdU/doxorubicin) in HeLa cells, fluorescence plate reader. Format: cell-based, Human. As to conditions: for fold increase in fluorescence compared to control cells: BrdU (100 μM), about 48 hours. How it is done: as §1
To measure ROS generated concomitant to the dose of the DNA damage, HeLa cells are treated with increasing doses (0 to 200 μM) of 5-bromo-2′-deoxyuridine (BrdU). BrdU is a thymidine analog, which gets directly incorporated into DNA and triggers DNA damage response. From previous studies in the art it is known that 48 hours of treatment with BrdU (100 μM) or another DNA damaging agent, doxorubicin at a concentration of 0.1 μM can lead to the induction of cellular senescence.

Data set [6] can be described thus: Time-dependent NMR analysis of H2O2 triggered slicing of phenyl boronic acid of QCy-BA. As to conditions: QCy-BA 2 mM in D2O, H2O2 10 mM, 1H NMR. The protocol: In a preliminary study, time-dependent NMR spectroscopy analysis of QCy-BA is carried out in the presence of H2O2 to assess the stimuli-responsive slicing of phenyl boronic acid functionality (FIG. 1(a)).
The chemical shifts of O—CH2, aromatic region of QCy-BA and appearance of possible new peaks for p-quinonemethide (sliced byproduct corresponding to phenyl boronic acid functionality) upon sequential addition of H2O2 is monitored. […] The peaks at 5.20 ppm and aromatic region 6.5-7.0 ppm correspond to the newly-formed exocyclic C—Hb protons of p-quinone-methide and QCy-DT moieties, respectively. After about 2 hours, a single peak at 5.20 ppm and prominent new peaks at 6.5-7.0 ppm are observed, indicating the complete conversion of QCy-BA to QCy-DT and p-quinonemethide (FIG. 1(b)). This study confirmed the H2O2 stimulus-triggered slicing of phenyl boronic acid functionality of QCy-BA to release QCy-DT, a DNA minor groove binding probe. It is observed that the color of the solution changes from yellow to brown after the addition of H2O2 to QCy-BA, a naked eye detection of the formation of p-quinone-methide and QCy-DT (FIG. 1(c)).

In data set [7] the test system is H2O2 in HeLa cells. The data set can be described thus: Confocal fluorescence imaging of HeLa cells treated with exogenous H2O2. As to conditions: QCy-BA 5 μM 30 minutes, then H2O2 100 μM about 15 minutes. It is filed as cell-based, Human. How it is done: An Immunofluorescence studies are carried out on HeLa cells to validate exogenous and endogenous detection of H2O2 by QCy-BA. The HeLa cells (10,000 cells) are grown on cover slips. These cells are treated with 5 μM concentration of QCy-BA for 30 minutes. The cells are washed with DPBS for several times to remove the excesses of QCy-BA. The cells are treated with H2O2 (100 μM) for 30 minutes. These samples are subjected to confocal microscopy for immunefluorescence images.
Remarkable selectivity of QCy-BA towards H2O2 and its detection through DNA-assisted switch-on NIR fluorescence led to evaluation of the uptake and application of the probe to detect H2O2 in cells. For this purpose, confocal fluorescence imaging of HeLa cells treated with H2O2 (exogenous) is carried out. First, the HeLa cells are incubated with QCy-BA (5 μM) for about 30 minutes and imaged under a confocal microscope. […] HeLa cells containing QCy-BA are then treated with H2O2 (100 μM) for about 15 minutes, after which the cells are again scanned under a confocal microscope.

Data set [8] can be described thus: Fluorescence response of QCy-BA to various reactive oxygen species (selectivity). The following applies: QCy-BA 5 μM; superoxide, hydroxyl radical, tert-butoxy radical, hypochlorite, 100 μM each. How it is done:
Further, concentration-dependent fluorescence study on slicing of the phenyl boronic acid functionality of QCy-BA (5 μM) in response to sequential addition of H2O2 (5 to 100 μM) is performed. The fluorescence intensity of QCy-BA at 565 nm is decreased in response to added H2O2 in the concentration range of 5 to 50 μM and subsequently reached saturation at 100 μM. A linear relationship (R^2=0.9877) is observed with increasing concentration of H2O2 in the concentration range of 5-50 JAM. Based on 3a/slope the limit of detection (LOD) of H2O2, using the decrease in fluorescence of QCy-BA at 565 nm, is found to be 5.3 μM (FIG. 7). H2O2 is one of the many ROS present in the biological system and it is necessary to test the probe QCy-BA against all of them to assess the selectivity and specificity. Therefore, the response of QCy-BA towards H2O2 (100 μM) in the presence of other ROS (100 μM) is examined, including tertbutyl hydroperoxide (TBHP), superoxide (O2^−), hydroxyl radical (HO.), tert-butoxy radical (^tBuO.) and hypochlorite (OCl^−).

The test system of data set [9] is H2O2 in HeLa cells. The experiment in a line: Exogenous and endogenous detection of H2O2 in HeLa cells by flow cytometry (FACS). It is filed as cell-based, Human. As to conditions: probe about 5 μM, about 30 minutes, absence of NAC. The protocol: In each well, […] cells are plated in 12-well tissue culture plates and incubated for 24 hours. These cells are serum deprived for 1 h. In addition, the serum deprived cells of 6-well are treated with N-acetyl-L-cysteine (NAC) (8 mM) solution and incubated for 1 hour and cells are treated with probe QCy-BA (5 μM) and incubated for 30 minutes. After 30 minutes incubation, the cells are washed with DPBS (Dulbecco's Phosphate buffer saline) to remove the excesses of QCy-BA. These cells are harvested after trypsinization. Exogenously, H2O2 (100 μM) is added to QCy-BA and NAC+QCy-BA treated cells and incubated for 15 min. These samples are subjected to FACS analysis.
NMR, photophysical study. […] Next. QCy-BA for probing cellular (physiologically generated) H2O2 levels in live cells is employed. HeLa cells are incubated with QCy-BA (about 5 μM) for about 30 minutes in the absence and presence of N-acetyl-L-cysteine (NAC), a well-known H2O2 scavenger. […] Thus, probe QCy-BA is also capable of detecting the cellular H2O2 levels in live cells.
For orientation: Flow cytometry measures light scatter and fluorescence of single cells or particles in a stream.

In data set [10] the test system is H2O2 produced by EGF/Nox pathway in HeLa cells. The data set can be described thus: EGF produced H2O2 detection in HeLa cells by flow cytometry (FACS). It is filed as cell-based, Human. As to conditions: EGF 500 ng/mL about 40 minutes, QCy-BA 5 μM 30 minutes. The protocol:
To determine the EGF produced ROS in cells by QCy-BA. In a 12-well plate, […] HeLa cells are plated in each well and incubated for 24 hour. These cells are serum deprived for 1 h. Cells are incubated with EGF (500 ng/mL) for 40 minutes and further treated with NAC (8 mM) for 1 hour. Then cells are treated with QCy-BA (5 μM) for 30 minutes. After 30 minutes incubation of cells with QCy-BA, cells are washed with DPBS (Dulbecco's Phosphate Buffer Saline) to remove the excesses of QCy-BA. These cells are harvested after trypsinization. The samples are subjected to FACS.
Further, the study is extended to visualize the in situ H2O2 generation by a known signaling pathway in live cells. Well-known epidermal growth factor (EGF) binding to epidermal growth factor receptor (EGFR) signaling pathway is selected, which stimulates the production of H2O2 in cells by activating the NOX/PI3K pathways. In this experiment, live HeLa cells are incubated with the epidermal growth factor (EGF) (500 ng/mL) for about 40 minutes under physiological conditions (37° C., pH=7.4).

Turning to `C[n+]1c(/C=C/c2ccc(OCc3ccc(B(O)O)cc3)c(/C=C/c3sc4ccccc4[n+]3C)c2)sc2ccccc21.[I-].[I-]` [QCy-BA, 4-((N, N-dimethyl, 2,4-bis((E)-2-(benzo[d]thiazol-2-ylinium)vinyl)phenoxy)methyl)phenylboronic acid], the “limit of detection (LOD) of H2O2, using the decrease in fluorescence of QCy-BA at 565 nm” value in data set [1] is 5.3 µM. Moreover, the viable cells result in [2] (25 μM, about 24 hours) was “more than 80%”. Further, the “toxicity (in words)” value in data set [2] (standard working concentration about 5 μM, 24 hours) is on record as “non-toxicity”. For the same compound, the “fluorescence compared to control cells” value in data set [3] is listed as “increase in fluorescence compared to control cells in a dose-dependent manner”. In [4] (H2O2 100 μM, excitation 564 nm), the “time to saturation of emission intensity at 650 nm” value is at least 4 h. Moreover, in [4] (pseudo-first-order, H2O2 1 mM, emission 650 nm), the “rate constant kobs for conversion of QCy-BA to QCy-DT” value is 0.001 s⁻¹. Further, in [5], the “fold increase in fluorescence compared to control cells” value is on record as around 10 fold. Further, the “time to complete conversion of QCy-BA to QCy-DT and p-quinonemethide” value in data set [6] was “about 2 hours”. In addition, the “fluorescence in HeLa cells after H2O2” value in [7] was “strong fluorescence in the red channel with maximum localization in the cell nucleus”. Moreover, the “effect of other ROS on the probe response (fluorescence at 565 nm)” value in data set [8] was “very minimal or no effect”. Moreover, the “mean fluorescence intensity of PerCP compared to control cells” value in data set [9] is listed as “increase in mean fluorescence intensity of PerCP”. For the same compound, the “fluorescence intensity in the PerCP region after EGF stimulation” value in [10] is reported as “strong fluorescence intensity”.

As to `CC(=O)Oc1cc2c(cc1Cl)C(c1ccccc1C(=O)O)c1cc(Cl)c(OC(C)=O)cc1O2` [DCFDA, 2′,7′-dichlorofluorescin diacetate], the “fold change of fluorescence (summary for DCFDA)” value in data set [5] (BrdU 100 μM and doxorubicin 0.1 μM, 48 h) is given as 3-4 fold. In [5], the “fold increase in fluorescence compared to control cells” value was 3 fold.
